“And” between values parts separate entries of the source, which are not always exact repeats. Identical values can stand only once. “Also recorded” adds a separate entry of the source.
Assays:
[1] = target: T1, human α3β3γ2L GABAA receptor subtype (Homo sapiens, UniProt P28472+P34903); assay: Whole-cell patch clamp (Dynaflow) on HEK-293 cells expressing the GABAA receptor α3β3γ2L subtype; format: cell-based; details: for 100 μM GABA mediated current response, area under curve, Mean ± SEM: 1 μM steroid + 100 μM GABA, relative to 100 μM GABA (set as 0%); for reduction (block) of the THDOC enhanced effect / effect on GABAs own effect on current response / reduction of the GABA effect: 100 μM GABA; for reduction (block) of the THDOC enhanced effect / reduction of the GABA effect: stated as size of reduction; for activation of the receptor / own effect in absence of GABA: steroid alone, in absence of GABA and/or THDOC
T1 construct: expressed in transfected cells; host or cells: HEK-293 cells (wild-type cells obtained from Pasteur Institute, Paris), permanently transfected
Description: Aim: To investigate the effect of 3α-ethynyl-3β-hydroxy-5α-androstan-17-methoxime and 3α-ethyl-3β-hydroxy-5α-androstan-17-oxime, respectively, on the GABAA receptor function. Experiments were performed both in absence and in presence of the GAMS tetrahydrodeoxycorticosterone (THDOC), in the absence and presence of GABA. In these tests the protocol was optimized to be similar to the physiological conditions in the synaptic cleft.
Cell culture: Wild-type HEK-293 cells passage 4 (obtained from Pasteur Institute, Paris, France), permanently transfected with cDNA to express the human α3β3γ2L GABAA receptor subtype, were seeded in cell bind culture flasks, grown and maintained at the temperature of +37° C., with a gas mixture of 5% CO2 in the cell incubator. The transfected cells were used for patch-clamp experiments minimum one passages after defrosting and 3-5 days after seeding. The α3β3γ2L cells were seeded for maximal 15 times.
Electrophysiological recordings: Whole cell patch technique was used to record whole-cell currents from the cells. Patch electrodes were pulled from 1.5 mm O.D., 0.86 mm I.D. borosilicate capillary glass without filament. […] After compensation for liquid junction potential a steady holding potential of −17 mV was used in all experiments. The cells were added to the chip (see below) and kept in EC solution (see above). EC solution with or without steroids and GABA were applied by the Dynaflow™ system (see below). All experiments were performed at room temperature (21-23° C.).
Dynaflow™ system: Dynaflow™ system with Resolve chips was used for all patch-clamp experiments including steroids. The Resolve chip consists of a glass chip enclosed by a PEEK plastic top part and a supporting plastic bottom part. Both wells and channels are glass coated. The channel width is 150 μm and the height 50 μm. The well volume is 150 μL. Run time at the flow rate of 26 μL/min was 90 min. The pump settings were as follows: BD Plastikpak™ 2 mL syringe with inner diameter of 8.1 mm was used. The syringe pump flow rate for Resolve chip was 26 μL/min.
The Resolve chip allows synchronized control of switching between 16 experimental solutions. Laminar flow at each solution outlet of the microfluidic chip prevents mixing, and a computer-controlled stage motor is used to move the chip relative to the patch pipette, allowing for relatively rapid solution exchange around the membrane patch. PClamp 9.0 software, DigiData 1322A converter and AxonPatch 200B were used to generate command pulses and collect data. Clampfit 10.3, Prism 6.0 and excel were used for data analyzes.
GABA and steroids: GABA was dissolved in EC-solution by ultrasound for about 20 minutes at maximal 40° C. to the concentration of 10 mM.
THDOC was dissolved in ethanol 99.5% to the concentration of 0.2 mM and tested steroids dissolved in ethanol 99.5% to the concentration of 2 mM (with ultrasound). The final ethanol concentration was 0.1% in all end-solutions, including the wash solution (EC) and the solution with GABA alone. End-solutions are the solutions added into the wells of the chip.
Protocol: The binding site of THDOC is in the […] region of the receptor. To achieve stable response, the cell was exposed to steroid (THDOC and/or steroid) 20 seconds before GABA application. The standard protocol as follow: 20 s preincubation of steoids (100 nM THDOC alone or in combination with one of 1 μM 3α-ethynyl-3β-hydroxy-5α-androstan-17-methoxime and 3α-ethyl-3β-hydroxy-5α-androstan-17-oxime), followed by 2 s application of 100 μM GABA±steroids (100 nM THDOC alone or in combination with one of 1 μM 3α-ethynyl-3β-hydroxy-5α-androstan-17-methoxime and 3α-ethyl-3β-hydroxy-5α-androstan-17-oxime). Washout time was 120 s.
Steroid (3α-ethynyl-3β-hydroxy-5α-androstan-17-methoxime or 3α-ethyl-3β-hydroxy-5α-androstan-17-oxime)+THDOC, in absence of GABA, were therefore not analyzed. […]

[2] = target: T2, GABAA receptor subtype α1β2γ2 (Homo sapiens, UniProt P14867+P47870); assay: Patch clamp on GABAA receptor subtype α1β2γ2, essentially as described in Example 2; format: cell-based
T2 construct: expressed in transfected cells

[3] = Weight increase in growing male rats, experiment 1 (5 days IV); format: in vivo, Male Wistar rats
Description: (§1) Animals: Male Wistar rats were kept in group cages, with three animals per cage, from delivery and throughout the period of experiments. The individual animals were marked so that they could be identified throughout the experiment duration. The animals weight an average of 152 g upon arrival. A reversed light dark (12:12 h) cycle was used with the dark period onset at 0600 hrs. Altogether fifty-six (56) rats were used in this study (experiment 1+2). The animals were delivered from the breeder Taconic (Denmark). The study protocol was approved by the Regional Ethics Committee of Umea University, Sweden.
(§2) Feeding: Standard chow and water were available ad libitum. A reversed 12-h dark-light cycle with lights off at 10.00 am and lights on at 22.00 pm was used. For identification, the rats were marked with a permanent marker on the tail. To avoid the endogenous allopregnanolone fluctuations that are present in the estrous cycle of female rats, male rats were chosen (Frye et al. 2000). The animals were allowed to acclimatize for at least 3 weeks before start of the experimental sessions. During this period, the rats were repeatedly handled and allowed habituation to the new environment and to all new procedures, to minimize stress during the experiments.
(§3) After 14 days of triad housing, handling and injection training of the animals, the animals were treated for 5 days with IV injections in experiment 1 and 10 days with a daily subcutaneous injection of the assigned treatment in experiment 2 (Table 3 and 4). The injections were given at 08.00 every morning. The animals were weighed the day before onset of the treatment and at the last day of injection i.e. on the 5th or 10th day of treatment. Weight was taken at the time of the last injection. […] The results are shown in FIG. 2 (experiment 1) and FIG. 3 (experiment 2), respectively.

[4] = Weight increase in growing male rats, experiment 2 (10 days s.c.); format: in vivo, Male Wistar rats
Description: as §1, §2, §3

[5] = system: GABAA receptor; details: table 3 in WO 09/142594; cited from earlier work
[6] = 2 mg/kg IV daily for 5 days, in 10% 2-Hydroxypropyl-β-cyclodextrin
[7] = 1 mg/kg s.c. + 5 mg/kg progesterone + 10 μg/kg 17β-estradiol

T1 sequence (P34903 29-492): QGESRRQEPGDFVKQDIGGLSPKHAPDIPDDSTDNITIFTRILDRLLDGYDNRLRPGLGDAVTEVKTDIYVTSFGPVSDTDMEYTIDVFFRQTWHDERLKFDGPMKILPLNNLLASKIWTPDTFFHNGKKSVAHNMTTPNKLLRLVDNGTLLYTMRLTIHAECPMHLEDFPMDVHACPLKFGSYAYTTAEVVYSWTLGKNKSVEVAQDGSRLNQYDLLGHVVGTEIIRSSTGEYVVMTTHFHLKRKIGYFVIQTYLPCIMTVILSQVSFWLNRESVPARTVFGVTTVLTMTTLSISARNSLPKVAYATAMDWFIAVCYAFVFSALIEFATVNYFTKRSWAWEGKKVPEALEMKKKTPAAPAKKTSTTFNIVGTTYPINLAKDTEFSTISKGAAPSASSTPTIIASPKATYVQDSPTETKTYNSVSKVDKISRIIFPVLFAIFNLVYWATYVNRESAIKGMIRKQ
T1 sequence (P28472 26-473): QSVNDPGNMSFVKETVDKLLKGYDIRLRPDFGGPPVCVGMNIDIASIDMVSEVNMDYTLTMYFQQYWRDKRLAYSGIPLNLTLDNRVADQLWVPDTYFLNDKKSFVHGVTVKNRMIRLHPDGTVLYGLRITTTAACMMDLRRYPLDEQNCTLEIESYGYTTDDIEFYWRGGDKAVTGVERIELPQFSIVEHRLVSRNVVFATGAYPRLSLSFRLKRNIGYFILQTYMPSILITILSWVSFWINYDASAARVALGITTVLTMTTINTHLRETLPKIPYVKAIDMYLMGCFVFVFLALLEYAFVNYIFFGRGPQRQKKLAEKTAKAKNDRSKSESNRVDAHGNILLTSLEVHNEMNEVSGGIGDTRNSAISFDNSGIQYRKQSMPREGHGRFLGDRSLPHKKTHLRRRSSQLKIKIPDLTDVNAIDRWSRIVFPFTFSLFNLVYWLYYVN
T1 sequence (P18507 40-475 partner): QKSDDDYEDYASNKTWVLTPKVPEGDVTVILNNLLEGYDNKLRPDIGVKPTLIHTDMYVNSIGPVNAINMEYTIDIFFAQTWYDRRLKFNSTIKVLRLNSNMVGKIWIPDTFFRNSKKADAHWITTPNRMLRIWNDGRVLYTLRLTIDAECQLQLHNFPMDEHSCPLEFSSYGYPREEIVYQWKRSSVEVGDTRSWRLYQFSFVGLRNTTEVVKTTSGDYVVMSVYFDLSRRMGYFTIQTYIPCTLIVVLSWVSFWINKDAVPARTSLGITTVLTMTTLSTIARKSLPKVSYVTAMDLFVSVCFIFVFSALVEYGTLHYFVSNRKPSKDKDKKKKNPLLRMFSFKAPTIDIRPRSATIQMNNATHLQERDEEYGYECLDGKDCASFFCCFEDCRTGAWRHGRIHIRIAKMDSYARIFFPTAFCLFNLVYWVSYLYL
T2 sequence (P14867 28-456): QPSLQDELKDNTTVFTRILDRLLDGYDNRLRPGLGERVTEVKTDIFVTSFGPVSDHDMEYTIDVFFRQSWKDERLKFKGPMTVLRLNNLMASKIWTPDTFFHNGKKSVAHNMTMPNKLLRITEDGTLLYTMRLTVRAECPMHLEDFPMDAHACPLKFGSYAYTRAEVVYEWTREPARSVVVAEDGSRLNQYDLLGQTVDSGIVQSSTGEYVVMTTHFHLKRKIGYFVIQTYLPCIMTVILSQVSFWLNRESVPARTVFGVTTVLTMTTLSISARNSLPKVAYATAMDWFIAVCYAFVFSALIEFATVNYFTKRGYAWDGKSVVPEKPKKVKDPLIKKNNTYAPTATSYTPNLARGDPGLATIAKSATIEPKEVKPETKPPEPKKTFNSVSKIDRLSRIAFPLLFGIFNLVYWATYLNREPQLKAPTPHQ
T2 sequence (P47870 25-512 limits assumed): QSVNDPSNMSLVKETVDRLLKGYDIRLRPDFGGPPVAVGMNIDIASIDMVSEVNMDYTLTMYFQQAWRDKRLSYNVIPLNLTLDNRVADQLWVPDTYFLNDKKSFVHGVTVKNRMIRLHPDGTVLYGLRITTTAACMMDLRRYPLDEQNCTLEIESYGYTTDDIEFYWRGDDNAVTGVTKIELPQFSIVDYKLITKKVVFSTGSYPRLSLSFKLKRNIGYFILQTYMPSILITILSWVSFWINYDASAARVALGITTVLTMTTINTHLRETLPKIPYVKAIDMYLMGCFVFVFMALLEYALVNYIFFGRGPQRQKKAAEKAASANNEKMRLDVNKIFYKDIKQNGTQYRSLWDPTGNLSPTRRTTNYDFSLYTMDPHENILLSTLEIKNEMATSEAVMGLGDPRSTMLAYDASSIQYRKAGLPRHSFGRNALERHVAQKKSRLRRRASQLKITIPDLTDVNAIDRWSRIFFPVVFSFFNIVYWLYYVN
T2 sequence (P18507 40-475 partner): as the sequence (P18507 40-475 partner) above

C#C[C@]1(O)CC[C@@]2(C)[C@@H](CC[C@@H]3[C@@H]2CC[C@]2(C)C(=O)CC[C@@H]32)C1 [3α-ethynyl-3β-hydroxy-5α-androstan-17-one]
Antagonism of 100 nM THDOC-enhancement, α3β3γ2 ([1]; 1 μM steroid + THDOC, Table 6): −166 ± 19.9%, | Effect against GABAs agonistic effect, α3β3γ2 ([1]; 1 μM steroid, Table 6): −46 ± 1.3%, | Effect against GABAs agonistic effect, α1β2γ2 ([2]; 1 μM steroid): −1.9 ± 2.4% | Antagonism of 100 nM THDOC-enhancement, α1β2γ2 ([2]; 1 μM steroid + THDOC): No effect | Mean weight increase since arrival [3, 6]: 97.43 g | Mean weight increase since treatment start [3, 6]: 11.86 g | increase in weight compared to vehicle treated groups ([3]; 2 mg/kg IV, 5 days): significantly lower | weight difference compared to vehicle [4, 7]: -33 ± 4.4 g | weight difference versus E+P control rats [4, 7]: -23.9 ± 4.4 g | weight difference versus E+P control rats ([4]; 5 mg/kg s.c. + 5 mg/kg progesterone + 10 μg/kg 17β-estradiol): -20.4 ± 5.2 g | weight difference after 10 days of treatment compared to vehicle ([4]; s.c.): over 20% | effect as a GAMSA or GAMS [5]: no effect

C#C[C@]1(O)CC[C@]2(C)C3CC[C@]4(C)/C(=N\OC)CCC4C3CC[C@H]2C1 (stereo partly drawn) [GR3053, 3α-ethynyl-3β-hydroxy-5α-androstan-17-methoxime]
100 μM GABA mediated current response, area under curve, Mean ± SEM [1]: −20 ± 2.1% | 100 μM GABA mediated current response, area under curve, Mean ± SEM ([1]; listed as 3α-ethynyl-3β-hydroxy-5α-androstan-17-methoxime): −20% | reduction (block) of the THDOC enhanced effect ([1]; 1 μM steroid, 100 nM THDOC): > 100% and 190% | effect on GABAs own effect on current response ([1]; 1 μM steroid): some antagonistic effect; also recorded: partial antagonistic effect | reduction of the GABA effect ([1]; 1 μM steroid): 20% | activation of the receptor / own effect in absence of GABA [1]: None

CC[C@]1(O)CC[C@]2(C)C3CC[C@]4(C)/C(=N\O)CCC4C3CC[C@H]2C1 (stereo partly drawn) [GR3055, 3α-ethyl-3β-hydroxy-5α-androstan-17-oxime]
100 μM GABA mediated current response, area under curve, Mean ± SEM [1]: −18 ± 3.4%, | 100 μM GABA mediated current response, area under curve, Mean ± SEM ([1]; listed as 3α-ethyl-3β-hydroxy-5α-androstan-17-oxime): −18% | reduction (block) of the THDOC enhanced effect ([1]; 1 μM steroid, 100 nM THDOC): 57% | effect on GABAs own effect on current response ([1]; 1 μM steroid): partial antagonistic effect | reduction of the GABA effect ([1]; 1 μM steroid): 18% | activation of the receptor / own effect in absence of GABA [1]: None

C[C@]12CC[C@@H](O)C[C@@H]1CC[C@@H]1[C@@H]2CC[C@]2(C)[C@@H](C(=O)CO)CC[C@@H]12 [THDOC, 3α, 21-dihydroxy-5α-pregnan-20-one, reference compound]
activation of the α3β3γ2L GABAA receptor by THDOC alone ([1]; 100 nM THDOC, in absence of GABA): did not activate
